Measurements as given in patent publication US12071431B2, “Pyridin-sulfonamide compounds for the treatment of conditions related to interleukin 1 beta” (ALLINKY BIOPHARMA, priority 2018, dated 2024).

Columns and labels:
Bleomycin-induced IPF = experiment: Treatment of bleomycin-induced IPF in mice; assay type: in vivo
From the text: Example 16: Effect of Compound 7 in the Treatment of Bleomycin-Induced IPF Timed pregnant mice (n=30) were selected for the study. The delivered pups were subcutaneously injected on the post-natal day 2 (PND-2) with 1.5 U/kg of Bleomycin (intra-tracheal) and were allowed to remain with the mother until they reached the weanling age. After weanling, the male pups were selected and fed with 60% kcal fat diet (Research Diet-D12492) for the next week. All the animals were observed twice daily for clinical signs. Mice were orally dosed with vehicle, test compounds and reference compound (Pirfenidone) twice daily morning (9.00 AM) and evening before the start of dark cycle (6:00 PM) from day 0 to 14. Animal body weight measurements were made daily for the complete duration of the experiment. Animals were dosed for 14 days with the test and reference compounds. Lung hydroxyproline level was estimated before the treatment start and on the termination day 14. Total cell count and differential leukocyte count in BALF were measured before the treatment start and on […]. Histopathology analysis in the form of H&E Ashcroft score was performed for the lung tissues. All the H&E stained tissue sections were examined by light microscopy. As per the below grading system (Kleiner et al., 2005) in 200× objective lens, IPF scoring was carried out. Collagen Proportion Area (% CPA) Measurement: Masson's Trichrome Staining All the Masson's trichrome stained tissue sections were examined by light microscopy in 100× objective lens. Randomly selected five fields (approx 684.85 μm×917.11m per field) from each lung were subjected to collagen proportion area measurement by using Image Pro Premier 9.1 software. The percentage of collagen proportion area was calculated by dividing collagen tissue area by total tissue area.

Recombinant Human MAPK8 = Recombinant Human MAPK8 (Homo sapiens, UniProt P45983); experiment: In vitro binding of JNK1 (MAPK8), SPRi; conditions: 4° C.
Sequence of Recombinant Human MAPK8 (P45983 whole entry): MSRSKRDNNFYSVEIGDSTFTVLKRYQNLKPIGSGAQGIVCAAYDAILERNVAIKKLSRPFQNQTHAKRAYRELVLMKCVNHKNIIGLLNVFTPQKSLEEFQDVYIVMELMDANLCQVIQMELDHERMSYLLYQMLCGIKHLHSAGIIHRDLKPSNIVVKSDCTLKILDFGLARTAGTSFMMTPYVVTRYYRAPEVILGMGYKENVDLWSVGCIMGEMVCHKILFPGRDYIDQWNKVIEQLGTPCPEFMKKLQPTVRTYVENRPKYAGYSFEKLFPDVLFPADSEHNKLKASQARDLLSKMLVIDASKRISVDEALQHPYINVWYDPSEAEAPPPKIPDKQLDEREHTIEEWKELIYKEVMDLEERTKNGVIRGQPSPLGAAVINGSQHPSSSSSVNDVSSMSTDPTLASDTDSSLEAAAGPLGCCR
Experimental: Example 13—In Vitro Binding of JNK1 (MAPK8)
(§1) Various concentrations of Recombinant Human MAPK8 dissolved in water were manually printed onto a bare gold-coated (thickness 47 nm) PlexArray Nanocapture Sensor Chip (Plexera Bioscience, Seattle, WA, US) at 40% humidity. Each concentration was printed in replicate, and each spot contained 0.2 μL of the protein solution. The chip was incubated in 80% humidity at 4° C. overnight, and rinsed with 10×PBST for 10 min, 1×PBST for 10 min, and deionized water twice for 10 min. The chip was then blocked with 5% (w/v) non-fat milk in water overnight, and washed with 10×PBST for 10 min, 1×PBST for 10 min, and deionized water twice for 10 min before being dried under a stream of nitrogen prior to use.
(§2) Surface Plasmon Resonance Imaging (SPRi) measurements were performed with PlexAray HT (Plexera Bioscience, Seattle, WA, US). Collimated light (660 nm) passes through the coupling prism, reflects off the SPR-active gold surface, and is received by the CCD camera. Buffers and samples were injected by a non-pulsatile piston pump into the 30 μL flowcell that was mounted on the coupling prism. Each measurement cycle contained four steps: washing with PBST running buffer at a constant rate of 2 μL/s to obtain a stable baseline, sample injection at 5 μL/s for binding, surface washing with PBST at 2 μL/s for 300 s, and regeneration with 0.5% (v/v) H3PO4 at 2 μL/s for 300 s. All the measurements were performed at 4° C.
(§3) The signal changes after binding and washing were recorded in AU as the assay value. Selected protein-grafted regions in the SPR images were analyzed, and the average reflectivity variations of the chosen areas were plotted as a function of time. Real-time binding signals were recorded and analyzed by Data Analysis Module (DAM, Plexera Bioscience, Seattle, WA, US). Kinetic analysis was performed using BIAevaluation 4.1 software (Biacore, Inc.).

p38 MAPK = p38 MAPK (Homo sapiens, UniProt Q16539); experiment: In vitro binding of p38 MAPK, SPRi
Sequence of p38 MAPK (Q16539 2-360): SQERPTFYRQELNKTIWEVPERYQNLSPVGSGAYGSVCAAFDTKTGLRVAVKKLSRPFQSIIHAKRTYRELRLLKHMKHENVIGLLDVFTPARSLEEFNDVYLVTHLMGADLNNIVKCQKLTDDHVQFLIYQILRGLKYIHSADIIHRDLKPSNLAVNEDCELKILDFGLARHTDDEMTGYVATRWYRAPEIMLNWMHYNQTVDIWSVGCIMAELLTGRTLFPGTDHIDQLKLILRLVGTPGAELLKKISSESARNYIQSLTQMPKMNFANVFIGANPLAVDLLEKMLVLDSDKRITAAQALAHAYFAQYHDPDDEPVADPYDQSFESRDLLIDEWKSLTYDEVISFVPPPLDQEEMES
Experimental: Example 14—In Vitro Binding of p38 MAPK
as §1, with “p38 MAPK” for “Recombinant Human MAPK8”, “of” for “of the”, “C. for” for “C.”
as §2
as §3, with “washing (in AU) are” for “washing were”, “recorded” for “recorded in AU”

Compound: CCOc1ccc(Oc2cc(S(=O)(=O)N(C)C)cnc2N2CCC(Oc3ccc(Cl)cc3)CC2)cc1 [Compound 7]
- lung hydroxyproline levels (Bleomycin-induced IPF; 15 mg/kg dose, oral twice daily, 14 days, vs Bleomycin control, FIG. 4): significantly reduced
- reduction of lung hydroxyproline levels compared with Pirfenidone (Bleomycin-induced IPF; Compound 7 15 mg/kg vs 100 mg/kg Pirfenidone): higher than for 100 mg/kg Pirfenidone
- BALF macrophage counts (Bleomycin-induced IPF; compared with Bleomycin control, Compound 7 p>0.05, Pirfenidone p<0.05, FIGS. 5A and 5B): reduced
- % CPA (Collagen Proportion Area) (Bleomycin-induced IPF; lung, Masson's trichrome, in comparison with Bleomycin control, p<0.05, FIG. 6B): significant reduction
- fibrosis score (H&E Ashcroft Score) (Bleomycin-induced IPF; lung, in comparison with Bleomycin control, p<0.05, FIG. 6A): significant reduction
- kon (Recombinant Human MAPK8; association rate, read-out: Ka): 22900 M⁻¹ s⁻¹
- koff (Recombinant Human MAPK8; dissociation rate): 0.000782 s⁻¹
- Kd (Recombinant Human MAPK8; read-out: equilibrium dissociation constant (KD Value)): 34.1 nM
- Kd (p38 MAPK; SPRi, 4° C., p38 MAPK, read-out: equilibrium dissociation constant (KD Value)): 11.9 nM
- kon (p38 MAPK; read-out: Ka): 20800 M⁻¹ s⁻¹
- koff (p38 MAPK; read-out: Kd): 0.000248 s⁻¹
